Reference: ChEMBL document CHEMBL5113404, “Design, synthesis and biological evaluation of new parbendazole derivatives for the treatment of HNSCC” (Eur J Med Chem, 2022)
The source made the active and inactive calls. No cut-off for these calls is given here.

Legend:
[1] = Antiproliferative activity against human HN-6 cells assessed as cell growth inhibition incubated for 72 hrs by CCK-8 assay; assay type: functional, cell-based; settings: HN-6, 72 h
CAL-27 = assay: Antiproliferative activity against human CAL-27 cells assessed as cell growth inhibition incubated for 72 hrs by CCK-8 assay; assay type: functional, cell-based; settings: CAL-27, 72 h
FaDu = assay: Antiproliferative activity against human FaDu cells assessed as cell growth inhibition incubated for 72 hrs by CCK-8 assay; assay type: functional, cell-based; settings: read-out: IC50
Tubulin (Homo sapiens) = Tubulin (Homo sapiens) (UniProt P68371+Q9H4B7+P0DPH7+P68366+Q13509+Q71U36+P04350+Q3ZCM7+P07437+P68363+Q9BQE3+Q6PEY2+Q13885+Q9BVA1+Q9BUF5); assay: Inhibition of tubulin polymerization (unknown origin) at 20 micromol/L by fluorescence based analysis; assay type: protein-complex assay; settings: dose 20.0 µmol/L
Tubulin = assay: Inhibition of tubulin polymerization (unknown origin) by fluorescence based analysis; assay type: protein-complex assay, Homo sapiens
HN-6 [2] = assay: Induction of cell morphological changes in human HN-6 cells assessed as decrease in tubulin network around nucleus at 100 nmol/L incubated for 24 hrs by DAPI staining based confocal microscopy analysis; assay type: functional
[3] = Antimigratory activity in human HN-6 cells assessed as inhibition of cell migration at 0.1 micromol/L measured after 24 hrs by scratch wound assay based fluorescence microscope analysis; assay type: functional; settings: HN-6, 24 h, dose 0.1 µmol/L
HN-6 [4] = assay: Inhibition of cell invasion in human HN-6 cells at 200 to 500 nmol/L incubated for 24 hrs by crystal violet staining based transwell assay; assay type: functional; settings: dose 200-500 nmol/L
[5] = Induction of apoptosis in human HN-6 cells assessed as viable cells at 0.1 micromol/L incubated for 24 hrs by Annexin-V/FITC-PI staining based flow cytometry analysis (reference value: 97.26%); assay type: functional; settings: HN-6, 24 h, dose 0.1 µmol/L, read-out: Activity
[6] = Induction of apoptosis in human HN-6 cells assessed as early apoptotic cells at 0.1 micromol/L incubated for 24 hrs by Annexin-V/FITC-PI staining based flow cytometry analysis (reference value: 2.04%); assay type: functional; settings: dose 0.1 µmol/L, at 0.1 µM
[7] = Induction of apoptosis in human HN-6 cells assessed as late apoptotic cells at 0.1 micromol/L incubated for 24 hrs by Annexin-V/FITC-PI staining based flow cytometry analysis (reference value: 8.81%); assay type: functional; settings: dose 0.1 µmol/L, at 0.1 µM
[8] = Induction of apoptosis in human HN-6 cells assessed as necrotic cells at 0.1 micromol/L incubated for 24 hrs by Annexin-V/FITC-PI staining based flow cytometry analysis (reference value: 2.08%); assay type: functional; settings: dose 0.1 µmol/L, at 0.1 µM
[9] = Induction of apoptosis in human HN-6 cells assessed as viable cells at 1 micromol/L incubated for 24 hrs by Annexin-V/FITC-PI staining based flow cytometry analysis (reference value: 97.26%); assay type: functional; settings: HN-6, 24 h, dose 1 µmol/L, read-out: Activity
[10] = Induction of apoptosis in human HN-6 cells assessed as early apoptotic cells at 1 micromol/L incubated for 24 hrs by Annexin-V/FITC-PI staining based flow cytometry analysis (reference value: 2.04%); assay type: functional; settings: dose 1 µmol/L, at 1 µM
[11] = Induction of apoptosis in human HN-6 cells assessed as late apoptotic cells at 1 micromol/L incubated for 24 hrs by Annexin-V/FITC-PI staining based flow cytometry analysis (reference value: 8.81%); assay type: functional; settings: dose 1 µmol/L, at 1 µM
[12] = Induction of apoptosis in human HN-6 cells assessed as necrotic cells at 1 micromol/L incubated for 24 hrs by Annexin-V/FITC-PI staining based flow cytometry analysis (reference value: 2.08%); assay type: functional; settings: dose 1 µmol/L, at 1 µM
[13] = Induction of cell cycle arrest in human HN-6 cells assessed as accumulation of cells at G1 phase at 0.1 micromol/L incubated for 24 hrs by PI staining based flow cytometry analysi (reference value: 45.33%); assay type: functional; settings: dose 0.1 µmol/L, at 0.1 µM
[14] = Induction of cell cycle arrest in human HN-6 cells assessed as accumulation of cells at S phase at 0.1 micromol/L incubated for 24 hrs by PI staining based flow cytometry analysi (reference value: 32.12%); assay type: functional; settings: dose 0.1 µmol/L, at 0.1 µM
[15] = Induction of cell cycle arrest in human HN-6 cells assessed as accumulation of cells at S phase at 0.1 micromol/L incubated for 24 hrs by PI staining based flow cytometry analysi (reference value: 31.19%); assay type: functional; settings: dose 0.1 µmol/L, at 0.1 µM
[16] = Cytotoxicity against human HFF-1 clls assessed as reduction in cell viability incubated for 72 hrs by CCK-8 assay; assay type: toxicity, cell-based; settings: HFF-1 cells
[17] = Acute toxicity in Kunming mouse assessed as adverse effect at 1 g/Kg,IG after 15 days of administration; settings: in vivo, po, 1000 mg/kg, 360 h, time 15 day
[18] = Acute toxicity in Kunming mouse assessed as death at 1 g/Kg,IG after 15 days of administration; settings: in vivo, po, 1000 mg/kg, 360 h, time 15 day
[19] = Acute toxicity in IG dosed Kunming mouse assessed as lethal dose after 15 days of administration; assay type: organism-based; settings: in vivo, po, time 15 day
[20] = Half life in rat at 100 mg/kg,IG measured upto 24 hrs by HPLC analysis; assay type: ADME, organism-based; settings: in vivo, po
[21] = Tmax in rat at 100 mg/kg,IG measured upto 24 hrs by HPLC analysis; assay type: ADME, organism-based; settings: in vivo, po
[22] = Cmax in rat at 100 mg/kg,IG measured upto 24 hrs by HPLC analysis; assay type: ADME, organism-based; parameters: dose 100 mg/kg, time < 24 hrs, route ig; settings: in vivo, po
[23] = AUC (0 to t) in rat at 100 mg/kg,IG measured upto 24 hrs by HPLC analysis; assay type: ADME, organism-based; parameters: dose 100 mg/kg, time < 24 hrs, route ig; settings: in vivo, po
HN-6 [24] = assay: Antitumor activity against human HN-6 cells xenografted in mouse assessed as reduction on tumor growth at 80 mg/kg,IG administered daily for 2 weeks; assay type: functional, organism-based
[25] = Acute toxicity in mouse xenografted with human HN-6 cells assessed as body weight loss at 80 mg/kg,IG administered daily for 2 weeks; assay type: organism-based; settings: in vivo, po, 336 h
Mus musculus [26] = assay: Antitumor activity against human HN-6 cells xenografted in mouse serum assessed as reduction on TPS level at 80 mg/kg,IG administered daily for 2 weeks by ELISA; assay type: functional, organism-based
Mus musculus [27] = assay: Antitumor activity against human HN-6 cells xenografted in mouse serum assessed as reduction on CYFRA21-1 level at 80 mg/kg,IG administered daily for 2 weeks by ELISA; assay type: functional, organism-based
Mus musculus [28] = assay: Antitumor activity against human HN-6 cells xenografted in mouse serum assessed as reduction on SCCAg level at 80 mg/kg,IG administered daily for 2 weeks by ELISA; assay type: functional, organism-based
[29] = Acute toxicity in Kunming mouse assessed as adverse effect at 158 mg/kg,IG after 15 days of administration; assay type: organism-based; settings: in vivo, po, 360 h, time 15 day
[30] = Acute toxicity in Kunming mouse assessed as adverse effect at 251 mg/kg,IG after 15 days of administration; assay type: organism-based; settings: in vivo, po, 360 h, time 15 day
[31] = Acute toxicity in Kunming mouse assessed as change in body weight at 158 mg/kg,IG after 15 days of administration; assay type: organism-based; settings: in vivo, po, 360 h, time 15 day
[32] = Acute toxicity in Kunming mouse assessed as change in body weight at 251 mg/kg,IG after 15 days of administration; assay type: organism-based; settings: in vivo, po, 360 h, time 15 day
[33] = Acute toxicity in Kunming mouse assessed as death at 398 mg/kg,IG after 15 days of administration; assay type: organism-based; settings: in vivo, po, 360 h, time 15 day
[34] = Acute toxicity in Kunming mouse assessed as lethargy at 631 mg/kg,IG after 6 hrs of administration; assay type: organism-based; settings: in vivo, po
[35] = Acute toxicity in Kunming mouse assessed as lethargy at 1 g/Kg,IG after 2 hrs of administration; settings: in vivo, po, 1000 mg/kg
[36] = Acute toxicity in Kunming mouse assessed as hypothermia at 631 mg/kg,IG after 6 hrs of administration; assay type: organism-based; settings: in vivo, po
[37] = Acute toxicity in Kunming mouse assessed as hypothermia at 1 g/Kg,IG after 2 hrs of administration; settings: in vivo, po, 1000 mg/kg
[38] = Acute toxicity in Kunming mouse assessed as weakness at 631 mg/kg,IG after 6 hrs of administration; assay type: organism-based; settings: in vivo, po
[39] = Acute toxicity in Kunming mouse assessed as weakness at 1 g/Kg,IG after 2 hrs of administration; settings: in vivo, po, 1000 mg/kg

`CCCCc1ccc2[nH]c(NC(=O)OC)nc2c1` [PARBENDAZOLE] gave an IC50 [1] of 0.102 µM, an IC50 (CAL-27) of 0.173 µM and an IC50 (FaDu) of 0.16 µM. For the same compound, the inhibition (Tubulin (Homo sapiens)) was 76.7%, the IC50 (Tubulin) was 9.55 µM and the Activity (HN-6 [2]) was “Active”. The inhibition at 0.1 µM [3] was 12.8%, the inhibition (HN-6 [4]) was “Active” and the viability at 0.1 µM [5] was 60.8%. For the same compound, the Activity [6] was 13.03%, the Activity [7] was 21.71% and the Activity [8] was 4.46%. The viability at 1 µM [9] was 51.8%, the Activity [10] was 16.34% and the Activity [11] was 25.96%. For the same compound, the Activity [12] was 5.94%, the Activity [13] was 13.56% and the Activity [14] was 16.02%. The Activity [15] was 69.09%, the IC50 at 72 h [16] was over 20 µM and the Activity [17] was “Non-Toxic”. For the same compound, the Activity [18] was “Non-Toxic”, the LD50 at 360 h [19] was over 1000 mg/kg and the half-life [20] was 2.16 h. It also gave a Tmax [21] of 4 h, a Cmax [22] of 0.141 µg/mL and an AUC(0-t) at 24 h [23] of 0.403 µg·h/mL.
`C=CCOC(=O)Nc1nc2ccc(CCCC)cc2[nH]1` showed an IC50 [1] of 0.0469 µM, an IC50 (CAL-27) of 0.118 µM and an IC50 (FaDu) of 0.126 µM. For the same compound, the inhibition (Tubulin (Homo sapiens)) was 86.6%, the IC50 (Tubulin) was 4.41 µM and the Activity (HN-6 [2]) was “Active”. For the same compound, the inhibition at 0.1 µM [3] was 8.1%, the inhibition (HN-6 [4]) was “Active” and the viability at 0.1 µM [5] was 79.3%. For the same compound, the Activity [6] was 4.98%, the Activity [7] was 12.09% and the Activity [8] was 3.77%. It also gave a viability at 1 µM [9] of 60.8%, an Activity [10] of 12.28% and an Activity [11] of 21.43%. For the same compound, the Activity [12] was 5.48%, the Activity [13] was 14.51% and the Activity [14] was 19.14%. The Activity [15] was 64.65%, the Activity (HN-6 [24]) was “Active” and the Activity [25] was “Non-Toxic”. For the same compound, the Activity (Mus musculus [26]) was “Active”, the Activity (Mus musculus [27]) was “Active” and the Activity (Mus musculus [28]) was “Active”. The IC50 at 72 h [16] was over 20 µM, the Activity [17] was “Non-Toxic” and the Activity [18] was “Non-Toxic”. The LD50 at 360 h [19] was over 1000 mg/kg, the half-life [20] was 2.19 h and the Tmax [21] was 4 h. The Cmax [22] was 0.083 µg/mL and the AUC(0-t) at 24 h [23] was 0.386 µg·h/mL.
`CCCCc1ccc2nc(NC(=O)OC(C)C)[nH]c2c1` showed an IC50 [1] of 0.0349 µM, an IC50 (CAL-27) of 0.0931 µM and an IC50 (FaDu) of 0.126 µM. The inhibition (Tubulin (Homo sapiens)) was 98.9%, the IC50 (Tubulin) was 4.04 µM and the Activity (HN-6 [2]) was “Active”. The inhibition at 0.1 µM [3] was 6.27%, the inhibition (HN-6 [4]) was “Active” and the viability at 0.1 µM [5] was 62.9%. For the same compound, the Activity [6] was 11.53%, the Activity [7] was 20.59% and the Activity [8] was 5.01%. The viability at 1 µM [9] was 52.6%, the Activity [10] was 16.44% and the Activity [11] was 24.75%. The Activity [12] was 6.23%, the Activity [13] was 14.26% and the Activity [14] was 16.16%. The Activity [15] was 68.08%, the Activity (HN-6 [24]) was “Active” and the Activity [25] was “Non-Toxic”. For the same compound, the Activity (Mus musculus [26]) was “Active”, the Activity (Mus musculus [27]) was “Active” and the Activity (Mus musculus [28]) was “Active”. The IC50 at 72 h [16] was over 20 µM, the Activity [29] was “Non-Toxic” and the Activity [30] was “Non-Toxic”. The Activity [31] was “Non-Toxic”, the Activity [32] was “Non-Toxic” and the Activity [33] was “Toxic”. For the same compound, the Activity [34] was “Toxic”, the Activity [35] was “Toxic” and the Activity [36] was “Toxic”. The Activity [37] was “Toxic”, the Activity [38] was “Toxic” and the Activity [39] was “Toxic”. The LD50 at 360 h [19] was 341 mg/kg, the half-life [20] was 1.95 h and the Tmax [21] was 2 h. The Cmax [22] was 0.169 µg/mL and the AUC(0-t) at 24 h [23] was 0.542 µg·h/mL.
